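Method: 48-hour compound exposure of cells in 96-well plates, five concentrations, linear interpolation of endpoints. The concentration for 50% growth inhibition is given as GI50.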 The source made the active and inactive calls. Cut-off read from the data, not from the text of the source: active = GI50 up to about 1.1 µM and inactive = higher.
What was measured:
Assay in all cases: NCI-60 cell line screen, 48 h
NCI-H226 = system: NCI-H226
MCF7 = system: MCF7
DU-145 = system: DU-145
NCI-H23 = system: NCI-H23
Hs-578T = system: Hs-578T
HL-60 = system: HL-60
NCI/ADR-RES = system: NCI/ADR-RES
COLO 205 = system: COLO 205
SK-MEL-2 = system: SK-MEL-2
A498 = system: A498
M14 = system: M14
MOLT-4 = system: MOLT-4
U-251 = system: U-251
OVCAR-8 = system: OVCAR-8
SW-620 = system: SW-620
BT-549 = system: BT-549
CAKI-1 = system: CAKI-1
OVCAR-5 = system: OVCAR-5
NCI-H522 = system: NCI-H522

Structure (SMILES)	GI50 (NCI-H226)	GI50 (MCF7)	GI50 (DU-145)	GI50 (NCI-H23)	GI50 (Hs-578T)	GI50 (HL-60)	GI50 (NCI/ADR-RES)	GI50 (COLO 205)	GI50 (SK-MEL-2)	GI50 (A498)	GI50 (M14)	GI50 (MOLT-4)	GI50 (U-251)	GI50 (OVCAR-8)	GI50 (SW-620)	GI50 (BT-549)	GI50 (CAKI-1)	GI50 (OVCAR-5)	GI50 (NCI-H522)
C[C@@H]1[C@@H](C)C(c2ccccc2)O[Si]1(C(C)(C)C)C(C)(C)C (stereo partly specified)	18.1 µM (inactive)	18.1 µM (inactive)	17.6 µM (inactive)	15.6 µM (inactive)	20.9 µM (inactive)	> 10 µM (inactive)	18.1 µM (inactive)	15.7 µM (inactive)	15.8 µM (inactive)	16.6 µM (inactive)	18.2 µM (inactive)	16 µM (inactive)	17 µM (inactive)	17.8 µM (inactive)	18.8 µM (inactive)	24.4 µM (inactive)	17.1 µM (inactive)	17.6 µM (inactive)	15.1 µM (inactive)
CC(C)C[S+]1C2=C(CC(C)(C)CC2=O)[N-]c2ccccc21 (stereo unspecified)	> 100 µM (inactive)	> 100 µM (inactive)	> 100 µM (inactive)	> 100 µM (inactive)	> 100 µM (inactive)	> 100 µM (inactive)	> 100 µM (inactive)	> 100 µM (inactive)	> 100 µM (inactive)	> 100 µM (inactive)	> 100 µM (inactive)	67.8 µM (inactive)	> 100 µM (inactive)	> 100 µM (inactive)	> 100 µM (inactive)	> 100 µM (inactive)	> 100 µM (inactive)	> 100 µM (inactive)	> 100 µM (inactive)
CC1(C)S[C@@H]2[C@H](NC(=O)C3(N)CCCCC3)C(=O)N2[C@H]1C(=O)O [CYCLACILLIN]	> 100 µM (inactive)	> 100 µM (inactive)	> 100 µM (inactive)	> 100 µM (inactive)	> 100 µM (inactive)	> 100 µM (inactive)	> 100 µM (inactive)	> 100 µM (inactive)	> 100 µM (inactive)	> 100 µM (inactive)	> 100 µM (inactive)	> 100 µM (inactive)	> 100 µM (inactive)	> 100 µM (inactive)	> 100 µM (inactive)	> 100 µM (inactive)	> 100 µM (inactive)	> 100 µM (inactive)	> 100 µM (inactive)
O=C(O)CCN(CCC(=O)O)c1ccc(/C=C2\SC(=S)NC2=O)cc1	> 100 µM (inactive)	> 100 µM (inactive)	> 100 µM (inactive)	> 100 µM (inactive)	> 100 µM (inactive)	> 100 µM (inactive)	> 100 µM (inactive)	> 100 µM (inactive)	> 100 µM (inactive)	> 100 µM (inactive)	> 100 µM (inactive)	> 100 µM (inactive)	> 100 µM (inactive)	> 100 µM (inactive)	> 100 µM (inactive)	> 100 µM (inactive)	> 100 µM (inactive)	> 100 µM (inactive)	91.6 µM (inactive)
CC(=O)NC1=CC(=O)C=C(Cl)C1=O	> 100 µM (inactive)	28.7 µM (inactive)	> 100 µM (inactive)	43.9 µM (inactive)	> 100 µM (inactive)	20.9 µM (inactive)	> 100 µM (inactive)	39.3 µM (inactive)	59.8 µM (inactive)	> 100 µM (inactive)	42.3 µM (inactive)	22.2 µM (inactive)	> 100 µM (inactive)	> 100 µM (inactive)	19 µM (inactive)	> 100 µM (inactive)	> 100 µM (inactive)	> 100 µM (inactive)	28.9 µM (inactive)
COC(=O)[C@H](C)NC(=O)C1(CNC(=O)[C@H](C)NC(=O)OC(C)(C)C)Cc2ccccc2-c2ccccc2C1	24.5 µM (inactive)	37.5 µM (inactive)	14.9 µM (inactive)	18 µM (inactive)	> 37.2 µM (inactive)	19.5 µM (inactive)	17.5 µM (inactive)	22.3 µM (inactive)	40 µM (inactive)	35.7 µM (inactive)	> 45.9 µM (inactive)	16.7 µM (inactive)	17.9 µM (inactive)	6.78 µM (inactive)	26.2 µM (inactive)	> 43.6 µM (inactive)	12.2 µM (inactive)	19.9 µM (inactive)	7.52 µM (inactive)
CC(C)(C)OC(=O)N(CCCCNCc1ccc2ccccc2c1)CCCNCc1ccc2ccccc2c1	1.64 µM (inactive)	1.55 µM (inactive)	1.69 µM (inactive)	1.85 µM (inactive)	1.77 µM (inactive)	0.204 µM (active)	1.57 µM (inactive)	1.17 µM (inactive)	2.06 µM (inactive)	1.91 µM (inactive)	1.96 µM (inactive)	0.708 µM (active)	1.89 µM (inactive)	1.67 µM (inactive)	1.75 µM (inactive)	1.73 µM (inactive)	1.17 µM (inactive)	1.67 µM (inactive)	1.58 µM (inactive)
N#C/C(=C\c1ccccc1)C(=O)Nc1nnc(-c2ccccc2)o1	44.9 µM (inactive)	50.9 µM (inactive)	50.4 µM (inactive)	39 µM (inactive)	> 100 µM (inactive)	20.7 µM (inactive)	29.6 µM (inactive)	28.3 µM (inactive)	52.1 µM (inactive)	27.3 µM (inactive)	37.8 µM (inactive)	33.1 µM (inactive)	37.4 µM (inactive)	36.1 µM (inactive)	52.7 µM (inactive)	28.2 µM (inactive)	28.1 µM (inactive)	82.6 µM (inactive)	38 µM (inactive)
CSc1nc(SC)c2c(C)cn(COCCOC(=O)c3ccccc3)c2n1	> 100 µM (inactive)	76.4 µM (inactive)	69.8 µM (inactive)	> 100 µM (inactive)	54.1 µM (inactive)	36.7 µM (inactive)	> 100 µM (inactive)	> 100 µM (inactive)	> 100 µM (inactive)	42.6 µM (inactive)	> 100 µM (inactive)	59.6 µM (inactive)	> 100 µM (inactive)	> 100 µM (inactive)	> 100 µM (inactive)	> 100 µM (inactive)	> 100 µM (inactive)	> 100 µM (inactive)	> 100 µM (inactive)
CCC(=O)/C=C/c1ccccc1	> 100 µM (inactive)	31.7 µM (inactive)	> 100 µM (inactive)	47.4 µM (inactive)	21.8 µM (inactive)	33.4 µM (inactive)	47.6 µM (inactive)	> 100 µM (inactive)	> 100 µM (inactive)	48.9 µM (inactive)	52.8 µM (inactive)	26 µM (inactive)	37.9 µM (inactive)	51.3 µM (inactive)	32.5 µM (inactive)	32.7 µM (inactive)	56.1 µM (inactive)	> 100 µM (inactive)	> 100 µM (inactive)
O=S(=O)(Nc1nc2ccccc2nc1Nc1ccc2ccccc2c1)c1ccccc1	16.7 µM (inactive)	10.9 µM (inactive)	20.3 µM (inactive)	6.89 µM (inactive)	14.3 µM (inactive)	5.77 µM (inactive)	5.73 µM (inactive)	12.4 µM (inactive)	3.19 µM (inactive)	28.3 µM (inactive)	9.04 µM (inactive)	5.24 µM (inactive)	5.78 µM (inactive)	14.4 µM (inactive)	7.38 µM (inactive)	15.8 µM (inactive)	27.4 µM (inactive)	26.4 µM (inactive)	5.15 µM (inactive)
Cc1cc(S(=O)(=O)Nc2nnc3c(Cl)cc(C(F)(F)F)cn23)c(S)cc1Cl	23.3 µM (inactive)	> 61.1 µM (inactive)	> 91.8 µM (inactive)	95.1 µM (inactive)	> 64.9 µM (inactive)	> 100 µM (inactive)	> 80.4 µM (inactive)	> 68.4 µM (inactive)	48.4 µM (inactive)	> 100 µM (inactive)	> 83.8 µM (inactive)	75.9 µM (inactive)	36 µM (inactive)	50.4 µM (inactive)	> 68.4 µM (inactive)	25.9 µM (inactive)	> 89.3 µM (inactive)	> 100 µM (inactive)	63.5 µM (inactive)
O=P(O)(O)CN1CCNCCN(CP(=O)(O)O)CCN(CP(=O)(O)O)CCNCC1	9.48 µM (inactive)	> 100 µM (inactive)	> 100 µM (inactive)	> 100000 µM (inactive)	> 100 µM (inactive)	1.73 µM (inactive)	> 100 µM (inactive)	44200 µM (inactive)	99300 µM (inactive)	93.5 µM (inactive)	> 100 µM (inactive)	> 100 µM (inactive)	> 100 µM (inactive)	83400 µM (inactive)	> 100 µM (inactive)	> 100 µM (inactive)	22500 µM (inactive)	> 100 µM (inactive)	> 100 µM (inactive)
COC(=O)[C@]1(c2cc3ccccc3[nH]2)CC2CN(CC(=O)N(C)OC)C1C1OC(C)(C)OC21 (stereo partly specified)	56 µM (inactive)	36.1 µM (inactive)	> 100 µM (inactive)	45.8 µM (inactive)	> 100 µM (inactive)	27.2 µM (inactive)	41.6 µM (inactive)	31.7 µM (inactive)	74.8 µM (inactive)	24 µM (inactive)	41.3 µM (inactive)	8.32 µM (inactive)	54.3 µM (inactive)	75.3 µM (inactive)	93.3 µM (inactive)	43 µM (inactive)	54.2 µM (inactive)	> 100 µM (inactive)	> 100 µM (inactive)
